Reference: patent EP4745137A1 (Gluetacs Therapeutics (Shanghai) Co., Ltd., priority 2023, dated 2025)

How the values were obtained:
Jurkat = assay: Tumor cell proliferation inhibition (CellTiter-Meiluncell Luminescent Cell Viability Assay), Jurkat; details: Homo sapiens, 96 h, read-out: inhibitory activity (IC50, nM) against tumor cells proliferation, Jurkat
Experimental: (§1) The tumor cells used herein were cultured in a cell culture medium listed in table 2 at 37°C in an incubator with 5% CO2. Prior to experimentation, all cell lines used were correctly identified by STR profiling, and tested negative for mycoplasma contamination using a mycoplasma detection kit through routine screenings.
(§2) On the following day, the test compounds of the present disclosure were subjected to serial dilution. […] Subsequently, 0.5 µL of the test compound dilution was transferred into the 96-well plate containing the cells, with each well containing 100 µL of cell culture medium. […] Into the 96-well plate, the diluted test compounds and corresponding detection reagents were added, resulting in final test compound concentrations of 500 nM and 10 nM, respectively. The experimental procedure is described below using the diluted 2 µM test compound as an example.
(§3) After the cells were treated with the compounds of the present disclosure for a specified period (the treatment durations were shown in Table 3), the cell viability assay reagent was added to the culture medium according to the kit's instructions to determine cell viability. […] All controls were treated using the same procedure as the compounds of the present disclosure. The growth inhibition curves for the compounds of the present disclosure were plotted using Prism GraphPad software, and the IC50 values were calculated therefrom.

CAL-62 = assay: Tumor cell proliferation inhibition (CellTiter-Meiluncell Luminescent Cell Viability Assay), CAL-62; details: Homo sapiens, CAL-62, 96 h, read-out: inhibitory activity (IC50, nM) against tumor cells proliferation, CAL-62
IKZF1 = target: T1, IKZF1 (Homo sapiens, UniProt Q13422+Q96SW2); assay: Western-blot assay of substrate protein degradation in hPBMCs, IKZF1; assay type: cell-based; details: 24 hours of compound treatment, compounds tested at 50 nM and 500 nM (concentration of the table not stated)
T1 construct: endogenous in cells; host or cells: hPBMCs (Milecell Biotechnologies)

MGC803 = assay: Tumor cell proliferation inhibition (CellTiter-Meiluncell Luminescent Cell Viability Assay), MGC803; details: Homo sapiens, MGC-803, 96 h, read-out: inhibitory activity (IC50, nM) against tumor cells proliferation, MGC803
Experimental: as §1
(§4) On the following day, the test compounds of the present disclosure were subjected to serial dilution. […] Subsequently, 0.5 µL of the test compound dilution was transferred into the 96-well plate containing the cells, with each well containing 100 µL of cell culture medium. […] Into the 96-well plate, the diluted test compounds and corresponding detection reagents were added, resulting in final test compound concentrations of 500 nM and 10 nM, respectively.
as §3

[1] = tested on: Human acute T lymphocytic leukemia cells (Molt-4); assay: Tumor cell proliferation inhibition (CellTiter-Meiluncell Luminescent Cell Viability Assay), Molt-4; details: MOLT-4, 96 h, read-out: inhibitory activity (IC50, nM) against tumor cells proliferation, Molt 4
Vcap = assay: Tumor cell proliferation inhibition (CellTiter-Meiluncell Luminescent Cell Viability Assay), Vcap; details: Homo sapiens, 96 h, read-out: inhibitory activity (IC50, nM) against tumor cells proliferation, Vcap
IKZF2 = target: T2, IKZF2 (Homo sapiens, UniProt Q96SW2+Q9UKS7); assay: Western-blot assay of substrate protein degradation in hPBMCs, IKZF2; assay type: cell-based; details: 24 hours of compound treatment, compounds tested at 50 nM and 500 nM (concentration of the table not stated)
T2 construct: endogenous in cells; host or cells: hPBMCs (Milecell Biotechnologies)

IKZF3 = target: T3, IKZF3 (Homo sapiens, UniProt Q96SW2+Q9UKT9); assay: Western-blot assay of substrate protein degradation in hPBMCs, IKZF3; assay type: cell-based; details: 24 hours of compound treatment, compounds tested at 50 nM and 500 nM (concentration of the table not stated)
T3 construct: endogenous in cells; host or cells: hPBMCs (Milecell Biotechnologies)

WEE1 = target: T4, WEE1 (Homo sapiens, UniProt P30291+Q96SW2); assay: Western-blot assay of substrate protein degradation in hPBMCs, WEE1; assay type: cell-based; details: 24 hours of compound treatment, compounds tested at 50 nM and 500 nM (concentration of the table not stated)
T4 construct: endogenous in cells; host or cells: hPBMCs (Milecell Biotechnologies)

[2] = tested on: Human breast cancer cells (MDA-MB-231); assay: Tumor cell proliferation inhibition (CellTiter-Meiluncell Luminescent Cell Viability Assay), MDA-MB-231; details: MDA-MB-231, 96 h, read-out: inhibitory activity (IC50, nM) against tumor cells proliferation, MDA-MB-231
NCI-H1975 = assay: Tumor cell proliferation inhibition (CellTiter-Meiluncell Luminescent Cell Viability Assay), NCI-H1975; details: Homo sapiens, NCI-H1975, 96 h, read-out: inhibitory activity (IC50, nM) against tumor cells proliferation, H1975
Experimental: as §1, §2, §3

SW620 = assay: Tumor cell proliferation inhibition (CellTiter-Meiluncell Luminescent Cell Viability Assay), SW620; details: Homo sapiens, SW-620, 96 h, read-out: inhibitory activity (IC50, nM) against tumor cells proliferation, SW620
GSPT1 = target: T5, GSPT1 (Homo sapiens, UniProt P15170+Q96SW2); assay: Western-blot assay of substrate protein degradation in hPBMCs, GSPT1; assay type: cell-based; details: 24 hours of compound treatment, compounds tested at 50 nM and 500 nM (concentration of the table not stated)
T5 construct: endogenous in cells; host or cells: hPBMCs (Milecell Biotechnologies)

CCRF-CEM = assay: Tumor cell proliferation inhibition (CellTiter-Meiluncell Luminescent Cell Viability Assay), CCRF-CEM; details: Homo sapiens, 96 h, read-out: inhibitory activity (IC50, nM) against tumor cells proliferation, CCRF-CEM
[3] = target: T6, human Cereblon WT GST-tagged protein (Homo sapiens, UniProt Q96SW2); assay: CRBN-binding affinity by HTRF (CEREBLON BINDING kit); details: HTRF inhibitory activity, CEREBLON BINDING kit; read-out: HTRF IC50
T6 construct: purchased CISBIO 64BDCRBNPEH

MM.1R = assay: Tumor cell proliferation inhibition (CellTiter-Meiluncell Luminescent Cell Viability Assay), MM.1R; details: Homo sapiens, 96 h, read-out: inhibitory activity (IC50, nM) against tumor cells proliferation, MM.1R
SR = assay: Tumor cell proliferation inhibition (CellTiter-Meiluncell Luminescent Cell Viability Assay), SR; details: Homo sapiens, 96 h, read-out: inhibitory activity (IC50, nM) against tumor cells proliferation, SR
Experimental: as §1, §4, §3

CK1α = target: T7, CK1α (Homo sapiens, UniProt P48729+Q96SW2); assay: Western-blot assay of substrate protein degradation in hPBMCs, CK1α; assay type: cell-based; details: 24 hours of compound treatment, compounds tested at 50 nM and 500 nM (concentration of the table not stated)
T7 construct: endogenous in cells; host or cells: hPBMCs (Milecell Biotechnologies)
T7 sequence (P48729 whole entry): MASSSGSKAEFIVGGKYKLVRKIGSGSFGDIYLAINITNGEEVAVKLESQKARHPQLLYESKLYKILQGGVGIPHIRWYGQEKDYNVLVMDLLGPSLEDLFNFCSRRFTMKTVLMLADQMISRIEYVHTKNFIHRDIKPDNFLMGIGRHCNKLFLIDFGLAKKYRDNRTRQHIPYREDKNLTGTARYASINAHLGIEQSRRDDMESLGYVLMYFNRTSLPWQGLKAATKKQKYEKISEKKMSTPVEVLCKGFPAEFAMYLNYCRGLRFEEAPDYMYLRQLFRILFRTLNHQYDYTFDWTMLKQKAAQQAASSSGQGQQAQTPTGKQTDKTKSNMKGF
T7 sequence (Q96SW2 whole entry): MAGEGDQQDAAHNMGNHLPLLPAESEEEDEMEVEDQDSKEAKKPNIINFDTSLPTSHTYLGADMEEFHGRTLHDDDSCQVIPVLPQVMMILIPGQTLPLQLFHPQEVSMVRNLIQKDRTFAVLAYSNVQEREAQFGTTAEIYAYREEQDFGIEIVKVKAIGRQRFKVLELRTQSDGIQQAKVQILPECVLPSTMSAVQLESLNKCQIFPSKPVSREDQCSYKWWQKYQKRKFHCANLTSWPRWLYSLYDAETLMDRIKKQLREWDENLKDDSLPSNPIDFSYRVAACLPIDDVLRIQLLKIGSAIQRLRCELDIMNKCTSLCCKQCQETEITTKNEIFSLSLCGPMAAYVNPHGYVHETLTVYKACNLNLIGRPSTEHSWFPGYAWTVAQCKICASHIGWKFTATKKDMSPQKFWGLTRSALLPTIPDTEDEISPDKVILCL
T7 sequence (Q16531 whole entry partner): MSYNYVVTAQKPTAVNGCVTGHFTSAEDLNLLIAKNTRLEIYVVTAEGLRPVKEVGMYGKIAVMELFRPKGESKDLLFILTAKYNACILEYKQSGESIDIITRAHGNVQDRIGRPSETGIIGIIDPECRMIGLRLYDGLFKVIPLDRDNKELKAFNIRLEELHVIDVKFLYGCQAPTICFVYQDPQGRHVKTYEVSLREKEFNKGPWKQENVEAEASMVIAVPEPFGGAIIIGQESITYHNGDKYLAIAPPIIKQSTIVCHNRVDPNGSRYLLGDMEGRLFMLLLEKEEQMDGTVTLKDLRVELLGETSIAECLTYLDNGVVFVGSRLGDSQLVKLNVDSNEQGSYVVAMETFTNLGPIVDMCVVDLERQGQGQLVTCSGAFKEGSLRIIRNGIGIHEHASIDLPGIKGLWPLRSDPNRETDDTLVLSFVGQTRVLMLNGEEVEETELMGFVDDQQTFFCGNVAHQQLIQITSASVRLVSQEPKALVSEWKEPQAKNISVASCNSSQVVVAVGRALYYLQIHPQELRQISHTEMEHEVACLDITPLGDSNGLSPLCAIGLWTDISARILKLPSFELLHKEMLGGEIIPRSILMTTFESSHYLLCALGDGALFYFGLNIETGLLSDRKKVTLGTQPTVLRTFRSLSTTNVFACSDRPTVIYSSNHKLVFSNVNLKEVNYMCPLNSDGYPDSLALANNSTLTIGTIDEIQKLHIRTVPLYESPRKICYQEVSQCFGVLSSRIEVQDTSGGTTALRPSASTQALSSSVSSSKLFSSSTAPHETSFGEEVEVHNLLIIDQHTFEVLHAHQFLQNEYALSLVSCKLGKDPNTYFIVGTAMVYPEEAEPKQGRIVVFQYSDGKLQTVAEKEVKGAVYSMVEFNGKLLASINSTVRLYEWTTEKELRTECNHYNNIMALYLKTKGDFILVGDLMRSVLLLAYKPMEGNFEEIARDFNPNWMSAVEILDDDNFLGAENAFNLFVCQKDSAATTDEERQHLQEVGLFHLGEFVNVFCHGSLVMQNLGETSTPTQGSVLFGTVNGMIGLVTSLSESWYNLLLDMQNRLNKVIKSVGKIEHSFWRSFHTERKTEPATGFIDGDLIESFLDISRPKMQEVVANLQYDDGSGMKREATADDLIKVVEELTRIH

T1 sequence (Q13422 whole entry): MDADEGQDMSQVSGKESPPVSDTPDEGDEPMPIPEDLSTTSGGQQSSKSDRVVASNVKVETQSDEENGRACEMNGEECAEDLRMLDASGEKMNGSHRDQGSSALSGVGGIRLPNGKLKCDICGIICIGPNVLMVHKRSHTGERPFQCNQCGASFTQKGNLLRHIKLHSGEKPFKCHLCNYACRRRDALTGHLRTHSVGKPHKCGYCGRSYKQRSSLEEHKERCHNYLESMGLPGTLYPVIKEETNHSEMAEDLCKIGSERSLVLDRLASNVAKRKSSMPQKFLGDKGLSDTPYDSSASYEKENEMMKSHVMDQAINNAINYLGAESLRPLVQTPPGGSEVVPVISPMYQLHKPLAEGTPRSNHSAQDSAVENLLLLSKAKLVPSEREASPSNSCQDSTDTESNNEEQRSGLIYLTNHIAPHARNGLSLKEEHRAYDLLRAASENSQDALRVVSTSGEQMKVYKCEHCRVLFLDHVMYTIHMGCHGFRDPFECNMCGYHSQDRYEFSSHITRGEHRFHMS
T1 sequence (Q96SW2 whole entry): as the sequence (Q96SW2 whole entry) above
T1 sequence (Q16531 whole entry partner): as the sequence (Q16531 whole entry partner) above
T3 sequence (Q9UKT9 whole entry): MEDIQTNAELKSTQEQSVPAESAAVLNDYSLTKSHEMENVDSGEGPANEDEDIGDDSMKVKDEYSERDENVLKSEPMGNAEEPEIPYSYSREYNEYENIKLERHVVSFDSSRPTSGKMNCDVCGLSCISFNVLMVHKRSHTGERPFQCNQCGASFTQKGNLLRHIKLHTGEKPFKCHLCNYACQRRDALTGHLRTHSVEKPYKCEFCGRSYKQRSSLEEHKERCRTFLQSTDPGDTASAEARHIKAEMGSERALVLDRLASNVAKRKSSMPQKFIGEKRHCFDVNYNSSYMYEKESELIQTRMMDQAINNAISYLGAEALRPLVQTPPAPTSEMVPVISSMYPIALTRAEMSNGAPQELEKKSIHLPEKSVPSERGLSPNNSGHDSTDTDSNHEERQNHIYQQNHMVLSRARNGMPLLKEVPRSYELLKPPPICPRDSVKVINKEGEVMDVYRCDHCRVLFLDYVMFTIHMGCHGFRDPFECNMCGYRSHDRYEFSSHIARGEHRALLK
T3 sequence (Q96SW2 whole entry): as the sequence (Q96SW2 whole entry) above
T3 sequence (Q16531 whole entry partner): as the sequence (Q16531 whole entry partner) above
T6 sequence (Q96SW2 whole entry): as the sequence (Q96SW2 whole entry) above
T4 sequence (P30291 whole entry): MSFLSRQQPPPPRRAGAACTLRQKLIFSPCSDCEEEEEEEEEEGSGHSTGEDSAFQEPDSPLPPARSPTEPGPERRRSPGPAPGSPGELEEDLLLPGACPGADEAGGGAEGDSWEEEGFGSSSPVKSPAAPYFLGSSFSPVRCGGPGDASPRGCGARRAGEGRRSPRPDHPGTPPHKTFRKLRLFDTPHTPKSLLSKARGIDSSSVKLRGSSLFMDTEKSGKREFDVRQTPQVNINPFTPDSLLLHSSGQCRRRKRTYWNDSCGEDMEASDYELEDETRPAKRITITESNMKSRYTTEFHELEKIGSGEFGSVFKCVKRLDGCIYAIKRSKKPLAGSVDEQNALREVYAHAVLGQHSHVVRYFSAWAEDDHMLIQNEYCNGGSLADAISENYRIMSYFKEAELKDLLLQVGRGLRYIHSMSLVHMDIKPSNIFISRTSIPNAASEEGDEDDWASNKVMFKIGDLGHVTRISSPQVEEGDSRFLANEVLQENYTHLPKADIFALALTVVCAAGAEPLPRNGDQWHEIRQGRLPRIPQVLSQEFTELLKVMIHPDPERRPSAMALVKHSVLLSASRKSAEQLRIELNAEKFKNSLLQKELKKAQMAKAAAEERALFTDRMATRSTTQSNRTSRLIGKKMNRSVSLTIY
T4 sequence (Q96SW2 whole entry): as the sequence (Q96SW2 whole entry) above
T4 sequence (Q16531 whole entry partner): as the sequence (Q16531 whole entry partner) above
T5 sequence (P15170 whole entry): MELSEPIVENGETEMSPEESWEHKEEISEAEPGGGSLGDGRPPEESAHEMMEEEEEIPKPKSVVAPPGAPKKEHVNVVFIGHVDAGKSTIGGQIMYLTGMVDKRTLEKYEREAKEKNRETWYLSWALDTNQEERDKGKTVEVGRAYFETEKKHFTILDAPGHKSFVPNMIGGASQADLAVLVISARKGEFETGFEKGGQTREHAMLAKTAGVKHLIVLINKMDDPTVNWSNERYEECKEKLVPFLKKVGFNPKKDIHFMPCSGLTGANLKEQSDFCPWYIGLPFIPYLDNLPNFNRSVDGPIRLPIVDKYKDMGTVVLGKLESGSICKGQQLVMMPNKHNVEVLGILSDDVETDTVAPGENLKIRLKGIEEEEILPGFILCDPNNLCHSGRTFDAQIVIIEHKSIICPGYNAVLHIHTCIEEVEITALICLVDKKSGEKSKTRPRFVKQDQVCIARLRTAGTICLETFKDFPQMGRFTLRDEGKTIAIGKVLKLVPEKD
T5 sequence (Q96SW2 whole entry): as the sequence (Q96SW2 whole entry) above
T5 sequence (Q16531 whole entry partner): as the sequence (Q16531 whole entry partner) above

IC50 (Jurkat) | IC50 (CAL-62) | IC50 (MGC803) | IC50 [1] | IC50 (Vcap) | IC50 [2] | IC50 (NCI-H1975) | IC50 (SW620) | IC50 (CCRF-CEM) | IC50 [3] | IC50 (MM.1R) | IC50 (SR) | Compound | IKZF 1 substrate protein remaining % (IKZF1) | IKZF2 substrate protein remaining % (IKZF2) | IKZF3 substrate protein remaining % (IKZF3) | Weel substrate protein remaining % (WEE1) | GSPT1 substrate protein remaining % (GSPT1) | CK1a substrate protein remaining % (CK1α)
1 to 5 nM | 5 to 10 nM | 50 to 100 nM | 1 to 5 nM | 10 to 50 nM | 50 to 100 nM | 50 to 100 nM | 10 to 50 nM | 1 to 5 nM | 500 to 1000 nM | 5 to 10 nM | 100 to 500 nM | O=C1CCC(N2Cc3cc(CN4CCN(c5ccc(Cl)cc5)CC4)ccc3C2=O)C(=O)N1 (stereo not drawn) [GT-04455, 3-(5-((4-(4-chlorophenyl)piperazin-1-yl)methyl)-1-oxoisoindolin-2-yl)piperidine-2,6-dione] | A (0% ≤ substrate protein remaining % ≤ 80%) | A (0% ≤ substrate protein remaining % ≤ 80%) | A (0% ≤ substrate protein remaining % ≤ 80%) | A (0% ≤ substrate protein remaining % ≤ 80%) | A (0% ≤ substrate protein remaining % ≤ 80%) | A (0% ≤ substrate protein remaining % ≤ 80%)
5 to 10 nM | 10 to 50 nM | 100 to 500 nM | 10 to 50 nM | 50 to 100 nM | 100 to 500 nM | 100 to 500 nM | 100 to 500 nM | 5 to 10 nM | 500 to 1000 nM | 10 to 50 nM | 500 to 1000 nM | O=C1CCC(N2Cc3cc(CN4CCN(c5ccccc5Br)CC4)ccc3C2=O)C(=O)N1 (stereo not drawn) [GT-04456, 3-(5-((4-(2-bromophenyl)piperazin-1-yl)methyl)-1-oxoisoindolin-2-yl)piperidine-2,6-dione] | A (0% ≤ substrate protein remaining % ≤ 80%) | A (0% ≤ substrate protein remaining % ≤ 80%) | A (0% ≤ substrate protein remaining % ≤ 80%) | A (0% ≤ substrate protein remaining % ≤ 80%) | A (0% ≤ substrate protein remaining % ≤ 80%) | A (0% ≤ substrate protein remaining % ≤ 80%)
10 to 50 nM | 10 to 50 nM | 10 to 50 nM | 1 to 5 nM | 5 to 10 nM | 10 to 50 nM | 10 to 50 nM | 10 to 50 nM | 1 to 5 nM | 500 to 1000 nM | 1 to 5 nM | 10 to 50 nM | Cc1cccc(N2CCN(Cc3ccc4c(c3)CN(C3CCC(=O)NC3=O)C4=O)CC2)c1 (stereo not drawn) [GT-04462, 3-(1-oxo-5-((4-(m-tolyl)piperazin-1-yl)methyl)isoindolin-2-yl)piperidine-2,6-dione] | A (0% ≤ substrate protein remaining % ≤ 80%) | A (0% ≤ substrate protein remaining % ≤ 80%) | A (0% ≤ substrate protein remaining % ≤ 80%) | A (0% ≤ substrate protein remaining % ≤ 80%) | A (0% ≤ substrate protein remaining % ≤ 80%) | A (0% ≤ substrate protein remaining % ≤ 80%)
5 to 10 nM | 10 to 50 nM | 100 to 500 nM | 5 to 10 nM | 10 to 50 nM | 100 to 500 nM | 100 to 500 nM | 100 to 500 nM | 5 to 10 nM | 1000 to 1500 nM | 5 to 10 nM | 500 to 1000 nM | Cc1ccc(N2CCN(Cc3ccc4c(c3)CN(C3CCC(=O)NC3=O)C4=O)CC2)cc1 (stereo not drawn) [GT-04463, 3-(1-oxo-5-((4-(p-tolyl)piperazin-1-yl)methyl)isoindolin-2-yl)piperidine-2,6-dione] | A (0% ≤ substrate protein remaining % ≤ 80%) | A (0% ≤ substrate protein remaining % ≤ 80%) | A (0% ≤ substrate protein remaining % ≤ 80%) | A (0% ≤ substrate protein remaining % ≤ 80%) | A (0% ≤ substrate protein remaining % ≤ 80%) | A (0% ≤ substrate protein remaining % ≤ 80%)
1 to 5 nM | 5 to 10 nM | 50 to 100 nM | 1 to 5 nM | 10 to 50 nM | 10 to 50 nM | 10 to 50 nM | 10 to 50 nM | 1 to 5 nM | 500 to 1000 nM | 1 to 5 nM | 50 to 100 nM | O=C1CCC(N2Cc3cc(CN4CCC(c5cccc(Br)c5)CC4)ccc3C2=O)C(=O)N1 (stereo not drawn) [GT-04466, 3-(5-((4-(3-bromophenyl)piperidin-1-yl)methyl)-1-oxoisoindolin-2-yl)piperidine-2,6-dione] | A (0% ≤ substrate protein remaining % ≤ 80%) | A (0% ≤ substrate protein remaining % ≤ 80%) | A (0% ≤ substrate protein remaining % ≤ 80%) | A (0% ≤ substrate protein remaining % ≤ 80%) | A (0% ≤ substrate protein remaining % ≤ 80%) | A (0% ≤ substrate protein remaining % ≤ 80%)
1 to 5 nM | 1 to 5 nM | 10 to 50 nM | 1 to 5 nM | 5 to 10 nM | 10 to 50 nM | 10 to 50 nM | 10 to 50 nM | 1 to 5 nM | 500 to 1000 nM | 1 to 5 nM | 10 to 50 nM | O=C1CCC(N2Cc3cc(CN4CCN(c5cccc(Br)c5)CC4)ccc3C2=O)C(=O)N1 (stereo not drawn) [GT-04467, 3-(5-((4-(3-bromophenyl)piperazin-1-yl)methyl)-1-oxoisoindolin-2-yl)piperidine-2,6-dione] | A (0% ≤ substrate protein remaining % ≤ 80%) | A (0% ≤ substrate protein remaining % ≤ 80%) | A (0% ≤ substrate protein remaining % ≤ 80%) | A (0% ≤ substrate protein remaining % ≤ 80%) | A (0% ≤ substrate protein remaining % ≤ 80%) | A (0% ≤ substrate protein remaining % ≤ 80%)
5 to 10 nM | 10 to 50 nM | 50 to 100 nM | 5 to 10 nM | 10 to 50 nM | 100 to 500 nM | 50 to 100 nM | 100 to 500 nM | 5 to 10 nM | 500 to 1000 nM | 10 to 50 nM | 100 to 500 nM | O=C1CCC(N2Cc3cc(CN4CCN(c5cc(Cl)ccc5Cl)CC4)ccc3C2=O)C(=O)N1 (stereo not drawn) [GT-04487, 3-(5-((4-(2,5-dichlorophenyl)piperazin-1-yl)methyl)-1-oxoisoindolin-2-yl)piperidine-2,6-dione] | B (80%< substrate protein remaining %≤ 100%) | A (0% ≤ substrate protein remaining % ≤ 80%) | B (80%< substrate protein remaining %≤ 100%) | B (80%< substrate protein remaining %≤ 100%) | A (0% ≤ substrate protein remaining % ≤ 80%) | A (0% ≤ substrate protein remaining % ≤ 80%)
